# Several values for one entry are separate records, joined by “and”; a condition that tells them apart may be missing. Identical values can stand only once.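 The compound was tested at five concentrations on cells cultured in 96-well plates, with a 48-hour exposure period. GI50 is the concentration that inhibits growth by half. TGI is the concentration that stops growth completely.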
# What was measured:
# Experiment in all cases: growth of human tumour cells (NCI), 48 h
# [1] = system: A549 NSCLC
# [2] = system: ACHN renal
# [3] = system: CAKI-1 renal
# [4] = system: CCRF-CEM leukemia
# [5] = system: HCT-15 colon
# [6] = system: HT29 colon
# [7] = system: NCI-H460 lung
# [8] = system: NCI/ADR-RES ovarian
# [9] = system: SK-MEL-28 melanoma
# [10] = system: SW-620 colon
Structure (SMILES),TGI [1],TGI [2],TGI [3],TGI [4],TGI [5],TGI [6],TGI [7],TGI [8],TGI [9],TGI [10],GI50 [1],GI50 [2],GI50 [3],GI50 [4],GI50 [5],GI50 [6],GI50 [7],GI50 [8],GI50 [9],GI50 [10]
CNCCCNc1c2ccccc2nc2cccc([N+](=O)[O-])c12,5.87 nM and 10.6 nM,15.2 nM,27.1 nM,14.3 nM,20.7 nM and 11.6 nM,18.5 nM,2.21 nM and 10.3 nM,34.6 nM,27.9 nM and 13.8 nM,35.7 nM and 10.1 nM,,,,,,,,,,
O=C(Nc1ccc2c(c1)OCCO2)C(=O)c1c[nH]c2ccccc12,> 100000 nM,> 100000 nM,> 100000 nM,> 100000 nM,> 100000 nM,3780 nM,> 100000 nM,5060 nM,> 100000 nM,> 100000 nM,1180 nM,5190 nM,1680 nM,1080 nM,967 nM,810 nM,1300 nM,375 nM,5600 nM,475 nM
O=C(/C=C\n1cnc(-c2cc(C(F)(F)F)cc(C(F)(F)F)c2)n1)N1CC(F)(F)C1,> 25000 nM,> 25000 nM,6840 nM,> 18800 nM,4860 nM,11500 nM,3070 nM,10900 nM,4810 nM,12900 nM,559 nM,1300 nM,288 nM,407 nM,651 nM,919 nM,207 nM,552 nM,460 nM,318 nM
CCn1c(=N)sc2nc3ccccc3n2c1=O,> 100000 nM,> 100000 nM,> 100000 nM,> 100000 nM,> 100000 nM,> 100000 nM,> 100000 nM,> 100000 nM,> 100000 nM,> 100000 nM,,,,,,,,,,
CN1CCN(CCCOc2cccc3nc(Nc4ccc(F)c(F)c4)ccc23)CC1,8150 nM,9170 nM,9350 nM,8060 nM,3420 nM,1350 nM,8900 nM,10500 nM,3630 nM,10500 nM,3500 nM,4570 nM,4450 nM,2420 nM,956 nM,616 nM,2370 nM,5160 nM,1080 nM,1820 nM
CC12OC(C(=O)C13CCC3)C1C(=O)c3ccc4c(ccc5ccccc54)c3C(=O)C12 (stereo unspecified),> 100000 nM,21400 nM,12700 nM,15200 nM,22400 nM,19200 nM,35900 nM,22800 nM,> 100000 nM,,19500 nM,6780 nM,1420 nM,2990 nM,4270 nM,3850 nM,12000 nM,4450 nM,36100 nM,
COc1ccc2nc3cccc([N+](=O)[O-])c3c(NCCNCCN(C)C)c2c1,518 nM,439 nM,616 nM,290 nM,,143 nM,96.7 nM,4670 nM,3090 nM,2270 nM,71.2 nM,41.4 nM,79.7 nM,38.4 nM,131 nM,23.8 nM,25.3 nM,884 nM,620 nM,48.6 nM
COc1cc(-c2cc3ncccc3c3[nH]c(=O)c4cccnc4c23)cc(OC)c1OC,> 100000 nM,> 100000 nM,> 100000 nM,> 100000 nM,> 100000 nM,> 100000 nM,> 100000 nM,> 100000 nM,> 100000 nM,> 100000 nM,1280 nM,885 nM,663 nM,623 nM,683 nM,397 nM,433 nM,482 nM,957 nM,493 nM
NCCOc1ncccc1/C=C1\c2ccccc2-c2ccc([N+](=O)[O-])cc21,204 nM,119 nM,231 nM,97.3 nM,871 nM,1040 nM,154 nM,1120 nM,1060 nM,834 nM,< 10 nM,23.5 nM,28.3 nM,18.1 nM,26.6 nM,89.8 nM,< 10.4 nM,154 nM,241 nM,72.5 nM
OC(COc1ccccc1)CN1CCCCC1 (stereo unspecified),> 100000 nM,> 100000 nM,> 100000 nM,> 100000 nM,> 100000 nM,> 100000 nM,> 100000 nM,> 100000 nM,> 100000 nM,> 100000 nM,,,,,,,,,,
Nc1ccc(-c2ccc3ncc4ccc(=O)n(-c5cccc(C(F)(F)F)c5)c4c3c2)cn1,2600 nM,,1550 nM,1930 nM,11700 nM,12000 nM,3180 nM,13100 nM,11500 nM,13300 nM,< 10 nM,< 10 nM,< 10 nM,< 10 nM,< 10 nM,115 nM,< 10 nM,20 nM,< 10 nM,< 12.5 nM
Nc1nc2c(ccc3ccccc32)s1,> 100000 nM,> 100000 nM,67500 nM,> 100000 nM,> 100000 nM,> 100000 nM,> 100000 nM,> 100000 nM,> 100000 nM,> 100000 nM,> 100000 nM,> 100000 nM,26700 nM,48100 nM,> 100000 nM,> 100000 nM,> 100000 nM,> 100000 nM,> 100000 nM,> 100000 nM
C[C@H](NC(=O)c1c(C(F)F)nn(C)c1Oc1cccc(C(F)(F)F)c1)c1ccc(C(=O)O)cc1,> 100000 nM,> 100000 nM,> 100000 nM,> 100000 nM,> 100000 nM,> 100000 nM,> 100000 nM,> 100000 nM,> 100000 nM,> 100000 nM,> 100000 nM,> 100000 nM,> 100000 nM,> 100000 nM,> 100000 nM,> 100000 nM,> 100000 nM,> 100000 nM,> 100000 nM,> 100000 nM

# — PubChem BioAssay (NCI)
